Patent publication US20240132450A1, “MODULATORS OF G PROTEIN-COUPLED RECEPTOR 88” (ACADIA Pharmaceuticals Inc., priority 2020, published 2024)

Target: hGPR88 receptor (Homo sapiens, UniProt Q9GZN0)
Test: hGPR88-HEK cAMP accumulation assay
Conditions: GRP88 agonist activity (EC50), HEK-293 cells expressing human recombinant GPR88, forskolin 200 nM, High/Medium/Low bands
Procedure: Biological Assay 1: hGPR88-HEK cAMP Accumulation Assay
Cryopreserved vials of HEK-293 cells expressing human recombinant GPR88 receptor are re-suspended in KRH assay buffer and 5 μl of cell solution is suspended in test wells at a seeding density of 2500±500 cells per well using the multidrop to provide a final reaction volume of 10 μl containing 0.5% DMSO. Assay plate is incubated for 30 min at room temperature and the reaction is terminated by addition of 5 μl of each of the cAMP detection reagents of the cAMP Gi kit (Cisbio Bioassays, 62AM9PEJ), diluted in cell lysis buffer, to each well using the multidrop in the following order: first the cAMP-d2 conjugate, then the anti-cAMP cryptate conjugate. […] Raw counts were converted to cAMP concentrations via a standard curve before EC50 and Emax determination. Data is expressed as % decrease in forskolin stimulated cAMP compared to cells treated with vehicle alone in the same buffer and on the same plate.

Sequence of hGPR88 receptor (Q9GZN0 whole entry): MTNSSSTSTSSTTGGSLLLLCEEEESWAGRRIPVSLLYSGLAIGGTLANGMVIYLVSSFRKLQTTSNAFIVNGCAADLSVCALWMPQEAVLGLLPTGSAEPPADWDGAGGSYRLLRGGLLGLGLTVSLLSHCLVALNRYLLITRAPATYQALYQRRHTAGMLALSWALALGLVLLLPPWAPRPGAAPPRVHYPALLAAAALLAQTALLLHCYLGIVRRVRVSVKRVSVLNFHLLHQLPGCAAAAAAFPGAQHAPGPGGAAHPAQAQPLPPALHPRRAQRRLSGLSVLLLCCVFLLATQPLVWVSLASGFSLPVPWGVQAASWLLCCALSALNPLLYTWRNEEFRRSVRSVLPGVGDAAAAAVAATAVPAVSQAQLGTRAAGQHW

Compound | EC50
CC(C)(Oc1ccc(F)cc1)C(=O)Nc1ccc(-c2ccc(C(=O)N3CCOCC3)cc2)cc1 [Example 27, 2-(4-fluorophenoxy)-2-methyl-N-(4′-(morpholine-4-carbonyl)-[1,1′-biphenyl]-4-yl)propenamide] | 1000 to 5000 nM
CCCCN(C(=O)C(C)(C)Oc1ccc(F)cc1)c1ccc(-c2ccc(COC)cc2)cc1 [Example 28, N-butyl-2-(4-fluorophenoxy)-N-(4′-(methoxymethyl)-[1,1′-biphenyl]-4-yl)-2-methylpropanamide] | < 1000 nM
COCc1ccc(-c2ccc(N(CC3CC3)C(=O)C(C)(C)Oc3ccc(F)cc3)cc2)cc1 [Example 29, N-(cyclopropylmethyl)-2-(4-fluorophenoxy)-N-(4′-(methoxymethyl)-[1,1′-biphenyl]-4-yl)-2-methylpropanamide] | 1000 to 5000 nM
CCOc1ncc(-c2ccc(NC(=O)C(C)(C)Oc3ccc(F)cc3)cc2)cn1 [Example 30, N-(4-(2-ethoxypyrimidin-5-yl)phenyl)-2-(4-fluorophenoxy)-2-methylpropanamide] | 1000 to 5000 nM
COCc1ccc(-c2ccc(N(CCO)C(=O)C(C)(C)Oc3ccc(F)cc3)cc2)cc1 [Example 33, 2-(4-fluorophenoxy)-N-(2-hydroxyethyl)-N-(4′-(methoxymethyl)-[1,1′-biphenyl]-4-yl)-2-methylpropanamide] | 1000 to 5000 nM
CC(C)(Oc1ccc(F)cc1)C(=O)Nc1ccc(-c2cnc(C(F)(F)F)nc2)cc1 [Example 38, 2-(4-fluorophenoxy)-2-methyl-/-(4-(2-(trifluoromethyl)pyrimidin-5-yl)phenyl)propenamide] | > 5000 nM
COCc1ccc(-c2ccc(N(CC(C)(C)O)C(=O)C(C)(C)Oc3ccc(F)cc3)cc2)cc1 [Example 39, 2-(4-fluorophenoxy)-N-(2-hydroxy-2-methylpropyl)-N-(4′-(methoxymethyl)-[1,1′-biphenyl]-4-yl)-2-methylpropanamide] | 1000 to 5000 nM
COCc1ccc(-c2ccc(NC(=O)C(C)(C)Oc3ccc(F)cc3)nc2)cc1 [Example 40, 2-(4-fluorophenoxy)-N-(5-(4-(methoxymethyl)phenyl)pyridin-2-yl)-2-methylpropanamide] | 1000 to 5000 nM
CC(C)(Oc1ccc(F)cc1)C(=O)Nc1ccc(-c2ccc(OC3CC3)cc2)cc1 [Example 41, N-(4′-cyclopropoxy-[1,1′-biphenyl]-4-yl)-2-(4-fluorophenoxy)-2-methylpropanamide] | > 5000 nM
CC(C)Cc1ccc(-c2ccc(NC(=O)C(C)(C)Oc3ccc(F)cc3)cc2)cc1 [Example 42, 2-(4-fluorophenoxy)-N-(4′-isobutyl-[1,1′-biphenyl]-4-yl)-2-methylpropanamide] | > 5000 nM
CC(C)Oc1ccc(-c2ccc(NC(=O)C(C)(C)Oc3ccc(F)cc3)cc2)cc1 [Example 46, 2-(4-fluorophenoxy)-N-(4′-isopropoxy-[1,1′-biphenyl]-4-yl)-2-methylpropanamide] | < 1000 nM
CC(c1ccc(-c2ccc(NC(=O)C(C)(C)Oc3ccc(F)cc3)cc2)cc1)N1CCOCC1 (stereo not shown) [Example 47, 2-(4-fluorophenoxy)-2-methyl-N-(4′-(1-morpholinoethyl)-[1,1′-biphenyl]-4-yl)propanamide] | 1000 to 5000 nM
CCOc1ccc(-c2ccc(NC(=O)C(C)(C)Oc3ccc(F)cc3)cc2)cc1 [Example 51, N-(4′-ethoxy-[1,1′-biphenyl]-4-yl)-2-(4-fluorophenoxy)-2-methylpropanamide] | > 5000 nM
CC(C)(Oc1ccc(F)cc1)C(=O)Nc1ccc(-c2ccc(S(C)(=O)=O)cc2)cc1 [Example 52, 2-(4-fluorophenoxy)-2-methyl-N-(4′-(methylsulfonyl)-[1,1′-biphenyl]-4-yl)propenamide] | > 5000 nM
COCc1ccc(-c2ccc(NC(=O)C(C)(C)Cc3ccc(F)cc3)cc2)cc1 [Example 55, 3-(4-fluorophenyl)-N-(4′-(methoxymethyl)-[1,1′-biphenyl]-4-yl)-2,2-dimethylpropanamide] | < 1000 nM
COCc1ccc(-c2ccc(NC(=O)C(C)(C)Cc3ccccc3)cc2)cc1 [Example 56, N-(4′-(methoxymethyl)-[1,1′-biphenyl]-4-yl)-2,2-dimethyl-3-phenylpropanamide] | 1000 to 5000 nM
CCc1ccc(OC(C)(C)C(=O)Nc2ccc(-c3ccc(COC)cc3)cc2)cc1 [Example 57, 2-(4-ethylphenoxy)-N-(4′-(methoxymethyl)-[1,1′-biphenyl]-4-yl)-2-methylpropanamide] | < 1000 nM
COCc1ccc(-c2ccc(NC(=O)C(C)(C)Oc3cccc(C)c3)cc2)cc1 [Example 58, N-(4′-(methoxymethyl)-[1,1′-biphenyl]-4-yl)-2-methyl-2-(m-tolyloxy)propenamide] | < 1000 nM
COCc1ccc(-c2ccc(NC(=O)C(C)(C)Oc3ccc(Br)cc3)cc2)cc1 [Example 59, 2-(4-bromophenoxy)-N-(4′-(methoxymethyl)-[1,1′-biphenyl]-4-yl)-2-methylpropanamide] | < 1000 nM
COCc1ccc(-c2ccc(NC(=O)C(C)(C)Oc3ccc(C(C)C)cc3)cc2)cc1 [Example 60, 2-(4-isopropylphenoxy)-N-(4′-(methoxymethyl)-[1,1′-biphenyl]-4-yl)-2-methylpropanamide] | < 1000 nM

Compound | EC50
COCc1ccc(-c2ccc(NC(=O)C(C)(C)Oc3cccc(F)c3)cc2)cc1 [Example 62, 2-(3-fluorophenoxy)-N-(4′-(methoxymethyl)-[1,1′-biphenyl]-4-yl)-2-methylpropanamide] | < 1000 nM
COCc1ccc(-c2ccc(NC(=O)C(C)(C)Oc3ccc(F)cc3F)cc2)cc1 [Example 63, 2-(2,4-difluorophenoxy)-N-(4′-(methoxymethyl)-[1,1′-biphenyl]-4-yl)-2-methylpropanamide] | < 1000 nM
COCc1ccc(-c2ccc(NC(=O)C(C)(C)Oc3ccccc3C)cc2)cc1 [Example 64, N-(4′-(methoxymethyl)-[1,1′-biphenyl]-4-yl)-2-methyl-2-(o-tolylox)propenamide] | < 1000 nM
COCc1ccc(-c2ccc(NC(=O)C(C)(C)Oc3cccc(Cl)c3)cc2)cc1 [Example 65, 2-(3-chlorophenoxy)-N-(4′-(methoxymethyl)-[1,1′-biphenyl]-4-yl)-2-methylpropanamide] | < 1000 nM
COCc1ccc(-c2ccc(NC(=O)C(C)(C)Oc3ccc(OC)cc3)cc2)cc1 [Example 66, N-(4′-(methoxymethyl)-[1,1′-biphenyl]-4-yl)-2-(4-methoxyphenoxy)-2-methylpropanamide] | < 1000 nM
COCc1ccc(-c2ccc(NC(=O)C(C)(C)Oc3ccccc3Cl)cc2)cc1 [Example 67, 2-(2-chlorophenoxy)-N-(4′-(methoxymethyl)-[1,1′-biphenyl]-4-yl)-2-methylpropanamide] | < 1000 nM
COCc1ccc(-c2ccc(NC(=O)C(C)(C)Oc3cccnn3)cc2)cc1 [Example 69, N-(4′-(methoxymethyl)-[1,1′-biphenyl]-4-yl)-2-methyl-2-(pyridazin-3-yloxy)propenamide] | > 5000 nM
COCc1ccc(-c2ccc(NC(=O)C(C)(C)Oc3ccc(C(F)(F)F)cn3)cc2)cc1 [Example 71, N-(4′-(methoxymethyl)-[1,1′-biphenyl]-4-yl)-2-methyl-2-((5-(trifluoromethyl)pyridin-2-yl)oxy)propenamide] | > 5000 nM
CN1CCN(Cc2ccc(-c3ccc(NC(=O)C(C)(C)Oc4ccc(F)cc4)cc3)cc2)CC1 [Example 72, 2-(4-fluorophenoxy)-2-methyl-N-(4′-((4-methylpiperazin-1-yl)methyl)-[1,1′-biphenyl]-4-yl)propanamide] | 1000 to 5000 nM
CN(C)Cc1ccc(-c2ccc(NC(=O)C(C)(C)Oc3ccc(F)cc3)nc2)cc1 [Example 80, N-(5-(4-((dimethylamino)methyl)phenyl)pyridin-2-yl)-2-(4-fluorophenoxy)-2-methylpropanamide] | 1000 to 5000 nM
CC(C)(Oc1ccc(F)cc1)C(=O)Nc1ccc(-c2ccc(CN3CCOCC3)cc2)cn1 [Example 81, 2-(4-fluorophenoxy)-2-methyl-N-(5-(4-(morpholinomethyl)phenyl)pyridin-2-yl)propanamide] | < 1000 nM
CCCc1ccc(-c2ccc(NC(=O)C(C)(C)Oc3ccc(F)cc3)cc2)cc1 [Example 84, 2-(4-fluorophenoxy)-2-methyl-N-(4′-propyl-[1,1′-biphenyl]-4-yl)propanamide] | > 5000 nM
CCOCc1ccc(-c2ccc(NC(=O)C(C)(C)Oc3ccc(F)cc3)cc2)cc1 [Example 86, N-(4′-(ethoxymethyl)-[1,1′-biphenyl]-4-yl)-2-(4-fluorophenoxy)-2-methylpropanamide] | < 1000 nM
CC(C)(Oc1ccc(F)cc1)C(=O)Nc1ccc(-c2ccc3c(c2)OCO3)cc1 [Example 88, N-(4-(benzo[d][1,3]dioxol-5-yl)phenyl)-2-(4-fluorophenoxy)-2-methylpropanamide] | 1000 to 5000 nM
CC(C)(C)OCc1ccc(-c2ccc(NC(=O)C(C)(C)Oc3ccc(F)cc3)cc2)cc1 [Example 89, N-(4′-(tert-butoxymethyl)-[1,1′-biphenyl]-4-yl)-2-(4-fluorophenoxy)-2-methylpropanamide] | < 1000 nM
CCCc1ccc(-c2ccc(NC(=O)C(C)(C)Oc3ccc(F)cc3)cc2)cn1 [Example 91, 2-(4-fluorophenoxy)-2-methyl-N-(4-(6-propylpyridin-3-yl)phenyl)propanamide] | 1000 to 5000 nM
COCc1ccc(-c2ccc(NC(=O)C(C)(C)Oc3ccc(F)cc3)cc2)cc1F [Example 93, N-(3′-fluoro-4′-(methoxymethyl)-[1,1′-biphenyl]-4-yl)-2-(4-fluorophenoxy)-2-methylpropanamide] | > 5000 nM
CCOc1ccc(-c2ccc(NC(=O)C(C)(C)Oc3ccc(OC)cc3)cc2)cn1 [Example 94, N-(4-(6-ethoxypyridin-3-yl)phenyl)-2-(4-methoxyphenoxy)-2-methylpropanamide] | 1000 to 5000 nM
COc1ccc(OC(C)(C)C(=O)Nc2ccc(-c3cnc(N(C)C)nc3)cc2)cc1 [Example 95, N-(4-(2-(dimethylamino)pyrimidin-5-yl)phenyl)-2-(4-methoxyphenoxy)-2-methylpropanamide] | 1000 to 5000 nM
COCc1ccc(-c2ccc(NC(=O)C(C)(C)Oc3ccc(Cl)cc3Cl)cc2)cc1 [Example 96, 2-(2,4-dichlorophenoxy)-N-(4′-(methoxymethyl)-[1,1′-biphenyl]-4-yl)-2-methylpropanamide] | > 5000 nM
